Data on one molecule can be found in PMC7449217, “The FDA-Approved Drug Nelfinavir Inhibits Lytic Cell-Free but Not Cell-Associated Nonlytic Transmission of Human Adenovirus” (Antimicrobial Agents and Chemotherapy, 2020).

Structures can show the parent of a compound that is named as a salt. Where two headings read alike, the source gives them in different places.

The subject of series [1] is A549 cells. To be noted: cited from earlier work.
In series [2] the test system is HAdV-C2-dE3B-GFP. Nature of the series: microbe, parasite or virus in culture. It is filed as cell-based, human adenovirus. The conditions noted are these: for EC50: Human adenovirus sp. Here is the method:
(§1) Per 96-well plate, 15,000 A549 cells, 10,000 HeLa cells, 30,000 HBECs, 30,000 HCE cells, or 30,000 CMT-93 cells were seeded in 100 μl of the respective supplemented medium and allowed to settle for 1 h at room temperature (RT) prior to cell culture incubation at 37°C with 5% CO2 and 95% humidity. The following day, the medium was replaced with 50 μl of the respective virus stock dilution giving rise to 5 to 50 plaques per 96-well plate. Fifty microliters of nelfinavir to obtain a 0.1 to 50 μM final concentration or the DMSO solvent control was also added, both in supplemented medium. For each experiment, a noninfected, treated control was performed. For uphill plaque assays, the medium volume was increased to 150 μl with identical virus and drug concentrations. For wash-in/washout experiments, the virus was incubated on cells in supplemented medium for 1 h at 37°C, cells were washed with PBS, and a 100-μl drug dilution in supplemented medium was added. All experiments were performed in four technical replicates or as indicated. Cells were incubated under standard cell culture conditions. At the indicated times postinfection, the cells were fixed, and the nuclei were stained for 1 h at RT by the addition of 33 μl 16% (wt/vol) paraformaldehyde (PFA) and 4 μg/ml Hoechst 33342 (Sigma-Aldrich, St. Louis, MO, USA) in PBS. Cells were washed three times with PBS and stored in PBS supplemented with 0.02% N3 for infections with viruses harboring a GFP transgene. For wild-type (wt) viruses, cells were quenched in PBS supplemented with 50 mM NH4Cl, permeabilized using 0.2% (vol/vol) Triton X-100 in PBS, and blocked with 0.5% (wt/vol) bovine serum albumin (BSA) in PBS. Cells were incubated with 381.7 ng/ml mouse anti-HAdV hexon protein antibody (Mab8052; Sigma-Aldrich, St. Louis, MO, USA) and subsequently stained using 2 μg/ml goat anti-mouse-Alexa Fluor 594 (catalog number A21203 or A32742; Thermo Fisher Scientific, Waltham, MA, USA). Plates were imaged on either an IXM-XL or an IXM-C automated high-throughput fluorescence microscope (Molecular Devices, San Jose, CA, USA) using a 4× objective in wide-field mode. Hoechst staining was recorded in the 4′,6-diamidino-2-phenylindole (DAPI) channel, the fluorescein isothiocyanate (FITC)/GFP channel was acquired for viral GFP, and the tetramethyl rhodamine isothiocyanate (TRITC)/Texas Red channel was acquired for hexon immunofluorescence staining.
(§2) The infection phenotype for each well was quantified using Plaque2.0 ([101]). The number of plaques was determined based on the infection signal (viral GFP or hexon immunofluorescence staining). Nuclei stained with Hoechst were segmented by using CellProfiler ([178]). Infected nuclei were classified based on the median infection signal per nucleus in CellProfiler. Data were plotted, and the EC50 (infected and treated cells), the TC50 (noninfected, treated cells), as well as the corresponding standard errors (SE) were determined using curve fitting in GraphPad (version 8.1.2; GraphPad Software, Inc.) using three-parameter inhibitor concentration-versus-response nonlinear regression. The mean TI50 was calculated as the […] ratio of the means. The TI50 SE was calculated by error propagation.

For series [3], the system named is HAdV-C2-dE3B-GFP. In words: quantification of infectious progeny in the supernatant, titration on A549 cells. In kind it is cell-based, human adenovirus. To be noted: 1.25 μM, 7 dpi, HAdV-C2-dE3B-GFP-infected A549 cells. As for the experimental part:
A549 cells were seeded at 480,000 cells per 6-well plate in full DMEM and infected at 1,100 PFU HAdV-C2-dE3B-GFP per well the next day. Following 1 h of warm incubation, the supernatant was removed, and cells were washed with PBS and detached by trypsin digestion. Infected cells were centrifuged and resuspended in fresh medium to remove any unbound input virus and seeded at 180,000 cells/12-well plate in medium supplemented with 1.25, 3, or 10 μM nelfinavir or equivalent amounts of the DMSO solvent control. At the indicated times postinfection, the supernatant was harvested and cleared by centrifugation. Two hundred microliters of PBS/well was added to the infected monolayer. Cells were disrupted by three freeze-thaw cycles, and freon extraction was performed. The supernatant and cell lysate were stored at 4°C until titration on naive A549 cells. PFA-fixed, Hoechst-stained cells were imaged at 44 hpi using a 4× objective (NA, 0.20) on an IXM-XL epifluorescence microscope (Molecular Devices, San Jose, CA, USA). GFP-positive infected cells were classified based on the median nuclear GFP intensity using automated image analysis by CellProfiler ([178]).
Four hundred eighty thousand A549 cells were seeded per 6-well dish, inoculated with 1,100 PFU HAdV-C2-dE3B-GFP/well for 1 h at 37°C, washed with PBS, and detached by trypsin digestion. […]

The subject of series [4] is A549 cells. In words: TC50, number of nuclei in noninfected treated cells. In kind it is cell-based, human. Here is the method:
as §1, with “Cells were incubated with 381.7 ng/ml mouse anti-HAdV hexon protein antibody (Mab8052; Sigma-Aldrich, St. Louis, MO, USA) and subsequently stained using 2 μg/ml goat anti-mouse-Alexa Fluor 594 (catalog number A21203 or A32742; Thermo Fisher Scientific, Waltham, MA, USA).” left out
as §2, with “Nuclei stained with Hoechst were segmented by using CellProfiler ([178]). Infected nuclei were classified based on the median infection signal per nucleus in CellProfiler.” left out

Broadly, the EC50 is the concentration needed to bring the measured effect to its halfway point. On to `Cc1c(O)cccc1C(=O)N[C@@H](CSc1ccccc1)[C@H](O)CN1C[C@H]2CCCC[C@H]2C[C@H]1C(=O)NC(C)(C)C` [Nelfinavir, Nelfinavir mesylate], for which, in the series on A549 cells [1], the Toxic result was “no”. Besides, the “TI50 (TC50/IC50)” value was found to be 66.80 in the series with HAdV-C2-dE3B-GFP [2] (HAdV-C2-dE3B-GFP in A549, 3 dpi, GFP); 66.8 with HAdV-C2-dE3B-GFP [2] (HAdV-C2-dE3B-GFP in A549, 3 dpi, GFP, listed as nelfinavir); 29.43 in the series with HAdV-C2-dE3B-GFP [2] (HAdV-C2-dE3B-GFP in A549, 4 dpi, GFP); 29.87 in the series with HAdV-C2-dE3B-GFP [2] (HAdV-C2-dE3B-GFP in A549, 4 dpi, Hexon). Besides, the concentration for a half-maximal effect (EC50) with HAdV-C2-dE3B-GFP [2] (A549, HAdV-C2-dE3B-GFP in A549, fixation 3 dpi (72 hpi), read-out GFP, plaque numbers) was 220 nM; in the series on HAdV-C2-dE3B-GFP [2] (A549, HAdV-C2-dE3B-GFP in A549, fixation 4 dpi, read-out GFP, plaque numbers), 440 nM; in the series with HAdV-C2-dE3B-GFP [2] (A549, HAdV-C2-dE3B-GFP in A549, fixation 4 dpi, read-out Hexon, plaque numbers), 430 nM; in the series with HAdV-C2-dE3B-GFP [2] (A549, read-out: EC50 of fluorescent-plaque formation, HAdV-C2-dE3B-GFP, A549 cells, 82 hpi, plaque numbers), 370 nM. The “median therapeutic index (TI50)” value in the series with HAdV-C2-dE3B-GFP [2] (ratio TC50 (nuclei) / EC50 (plaques), A549 cells, 82 hpi) worked out at 27.1. Moreover, in the series with HAdV-C2-dE3B-GFP [3], the “reduction of total yield of infectious particles in the supernatant” value is reported as 3 orders of magnitude. The TC50 in the series with A549 cells [4] (human, 1 days) is 49500 nM; in the series with A549 cells [4] (human, 6 days), 19080 nM; in the series with A549 cells [4] (noninfected A549, nuclei, 3 dpi, line HAdV-C5), 11910 nM. Moreover, the “TC50 (50% loss of cell nuclei)” value in the series with A549 cells [4] (human, 82 h) was 10010 nM.
